In patent publication US20180066018A1, “CONFORMATIONALLY STABLE ANALOGS OF THE RESPONSE SELECTIVE C5A AGONIST EP67” (Board Of Regents Of The University Of Nebraska, priority 2015, published 2018):
Entries after “also recorded” stand apart in the source; their conditions may differ. Non-standard residues stand in square brackets, D forms with d. No end group written: not given here. NMeL = CN[C@@H](CC(C)C)C(=O)O; Aib = CC(C)(N)C(=O)O

How the values were obtained:
human monocytes = experiment: Differentiation/maturation of human monocytes into macrophages in vitro (light microscopy); assay type: cell-based
Method: To assess the binding of EP67 analogs to APCs and subsequent biological activity on these cells, peptides were assayed for their ability to elicit the activation of monocytes in vitro and to drive the differentiation/maturation of human monocytes into macrophages and subsequently dendritic cells.
Briefly, monocytes were harvested from human peripheral blood mononuclear cells. The human monocytes were incubated at 37 degrees C. for 24 hrs in media the presence of PBS, 100 μg/ml of EP67, 100 μg/ml of EP144, and 100 μg/ml of EP145. The cells were also incubated with for 48 hrs with sEP67 as a control. The cells were then photographed under light microscopy at 20× or 40× magnification. […] Panels A-C & G are at 20× magnification and Panels D-E are at 40× magnification.

[1] = system: C5aR-bearing macrophages vs. C5aR-bearing neutrophils; experiment: Bioselectivity: cytokine release from macrophages vs. MPO release from neutrophils; assay type: cell-based; details: antilog[(−Δmacrophage)−(−Δneutrophil)], relative to C5a set at 1
Text: 2. Potency. Analog potency will be measured by half maximal effective concentration (EC50); i.e., the concentration of the analog to induce a response halfway between baseline and maximum effect. EC50 values for each analog be determined in two separate assays: cytokine release from macrophages and MPO release from neutrophils.
In macrophages, we will measure the release of the TH1 cytokines IL-6, TNFα, and INFγ in accordance to our previously published methods (Morgan et al. Enhancement of In Vivo and In Vitro Immune Functions by a Conformationally Biased, Response-Selective Agonist of Human C5a: Implications for a Novel Adjuvant in Vaccine Design. Vaccine 28:463-469, 2010; Morgan et al. A novel adjuvant for vaccine development in the aged. Vaccine 28:8275-8279, 2010). These cytokines are consistently released in readily measurable amounts from macrophages (as well as monocytes and dendritic cells) and will be representative of what we have seen with EP67 and consistent with the nature of the supporting data presented above. Briefly, macrophages will be incubated in the presence of various concentrations of analogs (10, 50, 100, 200 μg/ml) in standard cell culture conditions for 6, 12, and 24, hrs. […]
3. […] Analog selectivity for cytokine release from macrophages vs. MPO release from neutrophils will be determined by the following equation: […]

[2] = system: human and mouse macrophages; details: cited from earlier work
[3] = system: human and porcine monocytes; details: cited from earlier work
[4] = NMR (ROESY) determination of cis/trans conformer populations of the Met-Xaa peptide bond; assay type: physicochemical; details: in solution
Text: NMR spectroscopy is the best method for detection of cis/trans prolyl isomerization in a peptide. AAx-Pro cis/trans isomerization (where AAx is any adjacent amino acid residue) is detectable via two resonance frequencies in the NMR spectra per nuclear spin in the proximity of the isomerizing bond. Rotating-Frame NOE Spectroscopy (ROESY) was used to analyze EP67 (150 msec mixing time) in DMSO-d6. Characteristic NOE patterns readily discriminate the resonances arising from the cis and trans conformers allowing for specific assignments of each. Also, the relative populations of each conformer can be determined by integration of the separate peak volumes. Short ^1H-^1H distances (NOEs) between the alpha proton of AAx and the alpha proton of Pro are diagnostic of the cis AAx-Pro peptide bond. On the other hand, an observed NOE between the alpha proton of AAx and the delta protons of Pro are diagnostic of the trans AAx-Pro peptide bond.
where AA and AA′ are adjacent amino acids.
Analog peptides can be analyzed by NMR spectroscopy to verify structure and ascertain cis/trans conformer ratios of the Pro-substituted analogs. Special attention should be paid to the angles formed about α-carbon […]) and carbonyl carbon (Ψ and ω bonds) in the Met residue to the N-terminus of the substituted Pro residues. […]

[5] = 100 μg/ml, 37 degrees C., 24 hrs

**Q.** Which “differentiation of human monocytes to macrophages (adhesion to substrate and flattening)” value (from here on “differentiation of human monocytes”) (human monocytes; control peptide, 48 hrs) does the source give for “M(MeL)RFPDaYKS (M[NMeL]RFPD[dA]YKS) [sEP67]” here?
**A.** do not exhibit this phenotype

**Q.** Which results are given for “Tyr-Ser-Phe-Lys-Asp-Met-Pro-(MethylLeu)-D-Ala-Arg (YSFKDMP[NMeL][dA]R) [EP67]”?
**A.** selectivity factor for macrophage activity over that of neutrophils [1]: 2951; differentiation of human monocytes to macrophages (adhesion to substrate and flattening) (human monocytes; [5]): monocytes mature into macrophages; release of Th1 cytokines (IL-1β, IL-6, IL-8, IL-12, TNFα, IFNγ) [2]: induces the release of T helper type 1 (Th1) cytokines; release of Th2 cytokines (IL-2, IL-4, IL-5, IL-10) [2]: few T helper type 2 (Th2) cytokines; necrosis and apoptosis of the macrophages/dendritic cells once generated [3]: decreases necrosis and apoptosis; differentiation of monocytes to macrophages and dendritic cells ([3]; human and porcine monocytes): induces the differentiation of human and porcine monocytes to macrophages and dendritic cells

**Q.** For “YSFKDM(Aib)LaR (YSFKDM[Aib]L[dA]R-OH) [EP144, EP67 analog with Pro substituted with 2-aminoisobutyric acid and MeL with Leu]”, which “cis:trans conformer ratio” value [4] is on record?
**A.** all-trans

**Q.** And the “differentiation of human monocytes” value (human monocytes; [5])?
**A.** drive the differentiation of human monocytes to macrophages; also recorded: monocytes mature into macrophages

**Q.** Which “differentiation of human monocytes” value (human monocytes; [5]) does the source give for “YSFKDM(dmP)(MeL)aR (YSFKDMXLAR; 5,5'-dimethylproline, N-methyl-Leu, D-Ala; MOD_RES (7)..(7) Xaa is 5,5′-dimethylproline; MOD_RES (8)..(8) N-methyl Leu; MOD_RES (9)..(9) D-Ala) [EP145, EP67 analog with Pro substituted with 5,5′-dimethylproline]” here?
**A.** drive the differentiation of human monocytes to macrophages; also recorded: monocytes mature into macrophages

B1: C5a: short (74 residues in human) glycoprotein generated by enzymatic cleavage of complement C5 (protein, UniProt P01031 678-751, looked up)
C5a anaphylatoxin: TLQKKIEEIAAKYKHSVVKKCCYDGACVNNDETCEQRAARISLGPRCIKAFTECCVVASQLRANISHKDMQLGR
modifications: C5a anaphylatoxin
notes: short (74 residues in human) glycoprotein generated by enzymatic cleavage of complement C5
**Q.** Which “selectivity factor for macrophage activity over that of neutrophils” value [1] does the source give for B1 here?
**A.** 1
